Here are results for eight compounds from patent publication US20210038607A1, “OXADIAZOLYLTHIOPHENE DERIVATIVES USEFUL AS HISTONE DEACETYLASE INHIBITORS” (Karus Therapeutics Limited, priority 2018, published 2021).

One experiment addresses T1, Human HDAC4 (Homo sapiens, UniProt P56524).
T1 construct: amino acids 627-1085 with N-terminal GST tag; GST (N); host or cells: baculovirus expression system
The experiment can be described thus: HDAC4 biochemical assay, class IIa-specific substrate. The following applies: read-out: HDAC Isoform IC50 (nM) 4. As to the method:
(§1) Activity against all zinc-dependent HDACs 1 to 11 was assessed by using an acetylated AMC-labeled peptide substrate. The substrate RHKK(Ac)AMC was used for HDAC1, HDAC2, HDAC3, HDAC6 and HDAC10; the substrate used for HDAC8 was RHK(Ac)K(Ac)AMC. Activity against the class IIa HDACs (HDAC4, 5, 7, 9) and HDAC11 was determined using a class IIa-specific substrate, BOC-Lys(trifluoroacetyl)-AMC (“Trifluoroacetyl Lysine”; see Lahm et al, 2007, PNAS, 104, 17335-17340). All assays were based on the AMC-labeled substrate and developer combination.
(§2) The protocol involved a two-step reaction: first, the substrate with the acetylated lysine side chain is incubated with a sample containing HDAC activity, to produce the deacetylated products, which are then digested in the second step by the addition of developer to produce the fluorescent signal proportional to the amount of deacetylated substrates.
Human HDAC4 (GenBank Accession No. NM_006037), amino acids 627-1085 with N-terminal GST tag, MW=75.2 kDa, expressed in baculovirus expression system.
(§3) Assay Buffer: 50 mM Tris-HCl, pH8.0, 137 mM NaCl, 2.7 mM KCl, 1 mM MgC2. Before use, 1 mg/mL BSA and DMSO are added.
(§4) For class IIa HDACs, assay buffer is the same.
HDAC4: 0.004 ng/ul HDAC4 and 50 μM Class IIa HDAC substrate are in the reaction buffer with 1% DMSO final. Incubate for 30 minutes at room temperature.
(§5) Stage 1: Deacetylation of substrate by incubation of HDAC enzymes with compounds
(§6) Stage 2: Development by addition of Developer to digest the deacetylated substrate, and generate the fluorescent colour; Detection: 360/460 Ex/Em

Another experiment concerns the target T2, Human HDAC7 (Homo sapiens, UniProt Q8WUI4).
T2 construct: (a.a. 518-end) with N-terminal GST tag; GST (N); host or cells: baculovirus expression system
T2 sequence (Q8WUI4 518-952 limits assumed): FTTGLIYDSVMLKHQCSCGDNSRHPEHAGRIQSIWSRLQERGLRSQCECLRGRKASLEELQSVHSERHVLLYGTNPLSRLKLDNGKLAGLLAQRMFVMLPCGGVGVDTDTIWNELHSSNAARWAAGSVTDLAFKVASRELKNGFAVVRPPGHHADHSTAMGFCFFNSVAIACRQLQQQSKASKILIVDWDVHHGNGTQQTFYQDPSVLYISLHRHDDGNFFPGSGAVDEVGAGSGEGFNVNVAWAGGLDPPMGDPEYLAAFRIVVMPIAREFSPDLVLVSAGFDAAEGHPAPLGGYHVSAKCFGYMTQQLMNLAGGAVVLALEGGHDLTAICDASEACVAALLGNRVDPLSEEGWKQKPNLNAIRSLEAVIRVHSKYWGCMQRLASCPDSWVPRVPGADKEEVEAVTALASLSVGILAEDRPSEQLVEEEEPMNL
As to the kind of experiment: HDAC7 biochemical assay, class IIa-specific substrate. The following applies: read-out: HDAC Isoform IC50 (nM) 7. As for the experimental part: as §1, §2
Human HDAC7 (GenBank Accession No. AY302468), (a.a. 518-end) with N-terminal GST tag, MW=78 kDa, expressed in baculovirus expression system.
as §3, §4
HDAC7: 0.001 ng/ul HDAC7 and 50 μM Class IIa HDAC substrate are in the reaction buffer with 1% DMSO final. Incubate for 30 minutes at room temperature.
as §5, §6

For a further experiment, the target named is T3, Human HDAC5 (Homo sapiens, UniProt Q9UQL6).
T3 construct: full length with C-terminal His tag, MW=51.1 kDa; His (C); host or cells: baculovirus expression system
T3 sequence (Q9UQL6 656-1122 limits assumed): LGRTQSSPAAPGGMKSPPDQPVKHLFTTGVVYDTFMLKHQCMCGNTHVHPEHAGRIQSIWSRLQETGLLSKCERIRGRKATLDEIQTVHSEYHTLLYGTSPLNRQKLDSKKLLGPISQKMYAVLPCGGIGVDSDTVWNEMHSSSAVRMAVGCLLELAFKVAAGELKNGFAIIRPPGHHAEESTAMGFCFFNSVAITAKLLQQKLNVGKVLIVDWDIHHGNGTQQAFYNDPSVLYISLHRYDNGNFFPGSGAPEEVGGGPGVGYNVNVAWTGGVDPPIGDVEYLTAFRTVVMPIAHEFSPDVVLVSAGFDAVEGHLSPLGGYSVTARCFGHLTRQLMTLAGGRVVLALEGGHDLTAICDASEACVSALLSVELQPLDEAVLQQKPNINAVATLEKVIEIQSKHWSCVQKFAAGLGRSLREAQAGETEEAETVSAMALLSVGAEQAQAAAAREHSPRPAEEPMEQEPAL
The experiment can be described thus: HDAC5 biochemical assay, class IIa-specific substrate. Conditions: read-out: HDAC Isoform IC50 (nM) 5. As for the experimental part: as §1, §2
Human HDAC5 (GenBank Accession No. NM_005474), full length with C-terminal His tag, MW=51.1 kDa, expressed in baculovirus expression system.
as §3, §4
HDAC5: 0.05 ng/ul HDAC5 and 50 μM Class IIa HDAC substrate are in the reaction buffer with 1% DMSO final. Incubate for 30 minutes at room temperature.
as §5, §6

For the next experiment, the target named is T4, Recombinant human HDAC6 (Homo sapiens, UniProt Q9UBN7).
T4 construct: full length, MW=159 kDa; GST (N); host or cells: Sf9 insect cells (baculovirus)
T4 sequence (Q9UBN7 1-1215): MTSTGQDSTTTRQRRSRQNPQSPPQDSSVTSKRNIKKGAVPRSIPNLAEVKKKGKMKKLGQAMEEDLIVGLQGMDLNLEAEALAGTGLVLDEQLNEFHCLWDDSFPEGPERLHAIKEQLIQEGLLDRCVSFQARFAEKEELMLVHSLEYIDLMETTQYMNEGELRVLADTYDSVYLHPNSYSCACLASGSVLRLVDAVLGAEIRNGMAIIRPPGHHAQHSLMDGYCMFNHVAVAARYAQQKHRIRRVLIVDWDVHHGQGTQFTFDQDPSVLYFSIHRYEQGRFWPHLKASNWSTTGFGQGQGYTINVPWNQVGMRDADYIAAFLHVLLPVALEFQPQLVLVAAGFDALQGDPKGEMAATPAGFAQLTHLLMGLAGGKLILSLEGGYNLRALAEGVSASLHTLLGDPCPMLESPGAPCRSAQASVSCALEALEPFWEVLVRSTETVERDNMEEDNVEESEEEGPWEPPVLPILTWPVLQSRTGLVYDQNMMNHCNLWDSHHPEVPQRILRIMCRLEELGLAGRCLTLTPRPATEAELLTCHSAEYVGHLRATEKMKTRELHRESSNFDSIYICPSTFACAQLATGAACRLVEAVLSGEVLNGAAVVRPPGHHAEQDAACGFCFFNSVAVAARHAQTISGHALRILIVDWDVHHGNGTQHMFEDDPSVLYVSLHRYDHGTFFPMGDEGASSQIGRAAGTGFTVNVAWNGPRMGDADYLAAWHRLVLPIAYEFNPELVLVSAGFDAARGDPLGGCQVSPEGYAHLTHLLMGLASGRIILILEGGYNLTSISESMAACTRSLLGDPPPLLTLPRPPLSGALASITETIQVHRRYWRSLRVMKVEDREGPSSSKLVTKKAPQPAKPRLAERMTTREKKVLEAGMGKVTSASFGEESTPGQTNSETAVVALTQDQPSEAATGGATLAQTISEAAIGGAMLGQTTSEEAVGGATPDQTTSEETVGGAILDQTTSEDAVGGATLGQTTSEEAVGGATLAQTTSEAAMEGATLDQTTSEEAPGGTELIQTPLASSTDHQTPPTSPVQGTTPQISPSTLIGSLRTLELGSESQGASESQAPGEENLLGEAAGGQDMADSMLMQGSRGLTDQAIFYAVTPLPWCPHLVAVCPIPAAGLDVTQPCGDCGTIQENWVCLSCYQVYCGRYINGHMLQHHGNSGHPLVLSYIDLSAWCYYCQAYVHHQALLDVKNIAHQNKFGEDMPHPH
As to the kind of experiment: HDAC6 biochemical assay, AMC-labeled peptide substrate. Conditions: HDAC6; read-out: HDAC Isoform IC50 (nM) 6. As for the experimental part:
as §1, §2
Recombinant human HDAC6 (GenBank Accession No. BC069243), full length, MW=159 kDa, was expressed by baculovirus in Sf9 insect cells using an N-terminal GST tag.
as §3
HDAC6: 0.3 ng/ul HDAC6 and 50 μM HDAC substrate are in the reaction buffer with 1% DMSO final. Incubate for 1 hours at 30° C.
as §5, §6

A further experiment addresses T5, Human HDAC1 (Homo sapiens, UniProt Q13547).
T5 construct: full length with C-terminal His-tag and C-terminal FLAG-tag; His (C); FLAG (C); host or cells: baculovirus expression system
The experiment can be described thus: HDAC1 biochemical assay, AMC-labeled peptide substrate. Conditions: read-out: HDAC Isoform IC50 (nM) 1. As for the experimental part: as §1, §2
Human HDAC1 (GenBank Accession No. NM_004964), full length with C-terminal His-tag and C-terminal FLAG-tag, MW=56 kDa, expressed in baculovirus expression system.
as §3
HDAC1: 0.3 ng/ul HDAC1 and 50 μM HDAC substrate are in the reaction buffer with 1% DMSO final. Incubate for 1 hour at 30° C.
as §5, §6

A further experiment concerns the target T6, Human HDAC9 (Homo sapiens, UniProt Q9UKV0).
T6 construct: amino acids 604-1066 with C-terminal His tag; His (C); host or cells: baculovirus expression system
As to the kind of experiment: HDAC9 biochemical assay, class IIa-specific substrate. The following applies: read-out: HDAC Isoform IC50 (nM) 9. As for the experimental part: as §1, §2
Human HDAC9 (GenBank Accession No. NM_178423), amino acids 604-1066 with C-terminal His tag, MW=50.7 kDa, expressed in baculovirus expression system.
as §3, §4
HDAC9: 0.06 ng/ul HDAC9 and 50 μM Class IIa HDAC substrate are in the reaction buffer with 1% DMSO final. Incubate for 30 minutes at room temperature.
as §5, §6

T1 sequence (P56524 627-1084 limits assumed): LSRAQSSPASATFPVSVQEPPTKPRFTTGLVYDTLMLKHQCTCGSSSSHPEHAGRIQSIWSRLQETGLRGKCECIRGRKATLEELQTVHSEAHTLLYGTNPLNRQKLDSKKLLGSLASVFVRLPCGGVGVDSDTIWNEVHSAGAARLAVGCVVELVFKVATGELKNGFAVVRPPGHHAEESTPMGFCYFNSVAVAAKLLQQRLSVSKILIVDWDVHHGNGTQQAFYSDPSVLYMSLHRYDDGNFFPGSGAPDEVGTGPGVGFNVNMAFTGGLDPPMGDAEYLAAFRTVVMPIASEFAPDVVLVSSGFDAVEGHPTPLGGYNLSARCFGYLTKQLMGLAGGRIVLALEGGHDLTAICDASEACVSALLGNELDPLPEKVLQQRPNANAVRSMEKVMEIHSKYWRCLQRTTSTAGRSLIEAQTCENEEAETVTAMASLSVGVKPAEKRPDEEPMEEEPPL
T6 sequence (Q9UKV0 604-1066 isoform Q9UKV0-5): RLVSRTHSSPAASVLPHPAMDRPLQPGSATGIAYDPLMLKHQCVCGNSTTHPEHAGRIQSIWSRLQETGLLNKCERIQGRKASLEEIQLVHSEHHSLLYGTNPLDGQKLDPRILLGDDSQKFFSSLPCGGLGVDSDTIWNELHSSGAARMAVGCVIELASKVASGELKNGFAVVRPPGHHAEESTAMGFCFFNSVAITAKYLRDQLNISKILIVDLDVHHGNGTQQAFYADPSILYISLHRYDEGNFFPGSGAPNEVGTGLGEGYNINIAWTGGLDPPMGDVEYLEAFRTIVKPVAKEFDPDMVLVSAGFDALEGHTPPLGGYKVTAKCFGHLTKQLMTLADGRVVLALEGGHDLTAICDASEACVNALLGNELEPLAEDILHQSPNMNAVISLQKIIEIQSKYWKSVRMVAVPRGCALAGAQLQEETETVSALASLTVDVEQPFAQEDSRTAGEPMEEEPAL
T5 sequence (Q13547 whole entry): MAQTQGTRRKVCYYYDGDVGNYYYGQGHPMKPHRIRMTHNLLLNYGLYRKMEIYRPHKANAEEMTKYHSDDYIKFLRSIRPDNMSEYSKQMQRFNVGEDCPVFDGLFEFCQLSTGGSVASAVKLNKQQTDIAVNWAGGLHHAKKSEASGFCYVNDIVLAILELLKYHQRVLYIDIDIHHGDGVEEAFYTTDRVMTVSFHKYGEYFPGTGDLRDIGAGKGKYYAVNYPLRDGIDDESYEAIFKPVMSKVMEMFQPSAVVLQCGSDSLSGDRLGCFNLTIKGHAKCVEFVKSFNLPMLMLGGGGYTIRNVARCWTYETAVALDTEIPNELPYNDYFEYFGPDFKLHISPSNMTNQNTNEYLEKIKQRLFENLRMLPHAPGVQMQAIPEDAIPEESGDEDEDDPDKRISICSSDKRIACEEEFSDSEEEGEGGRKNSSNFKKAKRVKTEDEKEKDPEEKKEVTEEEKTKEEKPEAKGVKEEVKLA

The term IC50 denotes the concentration needed to halve the response being measured. As for `FC(F)(F)c1nc(-c2ccc(CN(c3ccncc3)c3cnccn3)s2)no1` [Example AR, N-(Pyridin-4-yl)-N-({5-[5-(trifluoromethyl)-1,2,4-oxadiazol-3-yl]thiophen-2-yl}methyl)pyrazin-2-amine], the IC50 is no more than 500 nM at Human HDAC4; no more than 500 nM at Human HDAC7; no more than 500 nM on Human HDAC5; no more than 500 nM on Recombinant human HDAC6; greater than 10000 nM at Human HDAC1; no more than 1000 nM at Human HDAC9.

With `Cc1ccnc(N(Cc2ccc(-c3noc(C(F)(F)F)n3)s2)c2cnccn2)n1` [Example AT, 4-Methyl-N-(pyrazin-2-yl)-N-({5-[5-(trifluoromethyl)-1,2,4-oxadiazol-3-yl]thiophen-2-yl}methyl)pyrimidin-2-amine], the IC50 was no more than 10000 nM at Human HDAC4; no more than 10000 nM at Human HDAC7; no more than 10000 nM at Human HDAC5; no more than 10000 nM at Recombinant human HDAC6; greater than 10000 nM at Human HDAC1; no more than 10000 nM at Human HDAC9.

As to `COc1ccnc(N(Cc2ccc(-c3noc(C(F)(F)F)n3)s2)c2cnccn2)n1` [Example AU, 4-Methoxy-N-(pyrazin-2-yl)-N-({5-[5-(trifluoromethyl)-1,2,4-oxadiazol-3-yl]thiophen-2-yl}methyl)pyrimidin-2-amine], the IC50 is no more than 10000 nM at Human HDAC4; no more than 10000 nM on Human HDAC7; no more than 10000 nM at Human HDAC5; no more than 10000 nM at Recombinant human HDAC6; greater than 10000 nM on Human HDAC1; no more than 10000 nM at Human HDAC9.

Consider `FC(F)(F)c1nc(-c2ccc(CN(c3cnccn3)c3nccc(N4CCCC4)n3)s2)no1` [Example AV, N-(Pyrazin-2-yl)-4-(pyrrolidin-1-yl)-N-({5-[5-(trifluoromethyl)-1,2,4-oxadiazol-3-yl]thiophen-2-yl}methyl)pyrimidin-2-amine], for which the IC50 at Human HDAC4 was no more than 10000 nM; at Human HDAC7 it was no more than 10000 nM; at Human HDAC5, no more than 10000 nM; at Recombinant human HDAC6 it was no more than 10000 nM; on Human HDAC1 it was greater than 10000 nM; at Human HDAC9 it was no more than 10000 nM.

As to `Cc1cnc(N(Cc2ccc(-c3noc(C(F)(F)F)n3)s2)c2cnccn2)nc1` [Example AW, 5-Methyl-N-(pyrazin-2-yl)-N-({5-[5-(trifluoromethyl)-1,2,4-oxadiazol-3-yl]thiophen-2-yl}methyl)pyrimidin-2-amine], the IC50 at Human HDAC4 is no more than 10000 nM; at Human HDAC7 it was no more than 10000 nM; at Human HDAC5, no more than 10000 nM; on Recombinant human HDAC6 it was no more than 10000 nM; on Human HDAC1, greater than 10000 nM; on Human HDAC9 it was no more than 10000 nM.

In the case of `Fc1cnc(N(Cc2ccc(-c3noc(C(F)(F)F)n3)s2)c2cnccn2)nc1` [Example AX, 5-Fluoro-N-(pyrazin-2-yl)-N-({5-[5-(trifluoromethyl)-1,2,4-oxadiazol-3-yl]thiophen-2-yl}methyl)pyrimidin-2-amine], the IC50 is no more than 10000 nM on Human HDAC4; no more than 10000 nM at Human HDAC7; no more than 10000 nM on Human HDAC5; no more than 10000 nM at Recombinant human HDAC6; greater than 10000 nM on Human HDAC1; no more than 10000 nM at Human HDAC9.

`COc1cnc(N(Cc2ccc(-c3noc(C(F)(F)F)n3)s2)c2cnccn2)nc1` [Example AY, 5-Methoxy-N-(pyrazin-2-yl)-N-({5-[5-(trifluoromethyl)-1,2,4-oxadiazol-3-yl]thiophen-2-yl}methyl)pyrimidin-2-amine]: the 50% inhibitory concentration (IC50) is no more than 10000 nM on Human HDAC4; no more than 10000 nM on Human HDAC7; no more than 10000 nM on Human HDAC5; no more than 1000 nM at Recombinant human HDAC6; no more than 10000 nM on Human HDAC1; no more than 10000 nM on Human HDAC9.

Take `Cc1cc(C)nc(N(Cc2ccc(-c3noc(C(F)(F)F)n3)s2)c2cnccn2)n1` [Example AZ, 4,6-Dimethyl-N-(pyrazin-2-yl)-N-({5-[5-(trifluoromethyl)-1,2,4-oxadiazol-3-yl]thiophen-2-yl}methyl)pyrimidin-2-amine]: the IC50 at Human HDAC4 was greater than 10000 nM; on Human HDAC7 it was greater than 10000 nM; at Human HDAC5, no more than 10000 nM; at Recombinant human HDAC6 it was no more than 10000 nM; at Human HDAC1, greater than 10000 nM; at Human HDAC9, greater than 10000 nM.
